In US20120070390A1, “Topical drug delivery system with dual carriers” (priority 2010, published 2012):
Like-named read-outs stand apart in the source and are kept apart here.

Tests used:
MRSA = assay: Petri dish zone of inhibition test; type: cell-based, Methicillin Resistant Staph Aureus; conditions: FIG. 17, identical size drops (diameters of ZOA)
HL-60 cells = conditions: cited from earlier work; for subsequent retinoid-induced TGM2 expression after priming by pretreatment: HL-60 cells, short exposure
[1] = system: mouse embryonic stem cells and embryoid bodies; conditions: cited from earlier work
Staph aureus = assay: Petri dish zone of inhibition comparison with control agents; type: cell-based, Staphylococcus aureus; conditions: FIG. 16, identical size drops (diameters of ZOA)
Enterococcus faecalis = assay: as above; type: cell-based; conditions: FIG. 25, identical size drops
[2] = Study I: vancomycin peaks and troughs in the patient; type: in vivo, human; conditions: 1.5 g BID, Q12, seven doses; ranges not noted
Experimental: Fri 2/5: Detection of a Strep-A strain, confirmed by culture study. Shifted from gentamycin to vancomycin 1.5 g BID, Q12. Patient was kept on this dosing regimen until 2/8 (date of discharge from hospital).
Mon 2/8: Patient received the last of seven doses of vancomycin. Throughout all of this their peaks (within 1 hour of receiving vancomycin) and troughs (before receiving vancomycin) were normal (ranges not noted here). Patient was discharged from the hospital on this date.

[3] = system: MRSA infection and Grade I diabetic ulcer of the left hallux with cellulitus; assay: Study III: human field study, diabetic foot lesion with MRSA cellulitus; type: in vivo; conditions: IV, 8 days following admission, before the invention was used
Experimental: In this embodiment, the additional ingredient to hasten a third therapeutic tissue healing effect was added. This embodiment used vitamin D in a small but medically efficacious amount.

Molecule: CO[C@@]1(NC(=O)Cc2cccs2)C(=O)N2C(C(=O)O)=C(COC(N)=O)CS[C@@H]21 [Cefoxicillin]
- zones of inhibition of control agents compared with the formulations of the invention (MRSA): considerably reduced zones of inhibition

Molecule: C[S+](C)[O-] [DMSO, dimethyl sulfoxide]
- amount at which desired cellular responses occurred (HL-60 cells; DMSO): less than 2%
- subsequent retinoid-induced TGM2 expression after priming by pretreatment (HL-60 cells): increases subsequent retinoid-induced TGM2 expression
- mRNA and protein expression in epigenetic profiles [1]: upregulation of mRNA and protein expression

Molecule: CC[C@H]1OC(=O)[C@H](C)[C@@H](O[C@H]2C[C@@](C)(OC)[C@@H](O)[C@H](C)O2)[C@H](C)[C@@H](O[C@@H]2O[C@H](C)C[C@H](N(C)C)[C@H]2O)[C@](C)(O)C[C@@H](C)C(=O)[C@H](C)[C@@H](O)[C@]1(C)O [Erythromycin]
- zones of inhibition of control agents compared with the formulations of the invention (Staph aureus): considerably reduced zones of inhibition
- zones of inhibition of control agents compared with the formulations of the invention (MRSA): considerably reduced zones of inhibition

Molecule: CN[C@H](CC(C)C)C(=O)N[C@H]1C(=O)N[C@@H](CC(N)=O)C(=O)N[C@H]2C(=O)N[C@H]3C(=O)N[C@H](C(=O)N[C@H](C(=O)O)c4cc(O)cc(O)c4-c4cc3ccc4O)[C@H](O)c3ccc(c(Cl)c3)Oc3cc2cc(c3O[C@@H]2O[C@H](CO)[C@@H](O)[C@H](O)[C@H]2O[C@H]2C[C@](C)(N)[C@H](O)[C@H](C)O2)Oc2ccc(cc2Cl)[C@H]1O [Vancomycin]
- zones of inhibition of control agents compared with the formulations of the invention (Enterococcus faecalis): considerably reduced zones of inhibition
- peaks (within 1 hour of receiving) and troughs (before receiving) [2]: normal
- patient response to treatment [3]: did not respond

Molecule: vitamin D
- subsequent retinoid-induced TGM2 expression after priming by pretreatment (HL-60 cells): increases subsequent retinoid-induced TGM2 expression
- amount at which desired cellular responses occurred (HL-60 cells; vitamin D): about 100 nM
